From article PMC4321377, “Multiple signals modulate the activity of the complex sensor kinase TodS” (Microbial Biotechnology, 2014)

Molecular target: T1, TodS (Pseudomonas putida, UniProt E0X9C7)
T1 construct: full-length TodS, N-terminal His tag
Assay: autophosphorylation assay with [γ-32P]ATP of purified TodS; ITC showed an exothermic chemical reaction
Assay type: biochemical

T1 sequence (E0X9C7 whole entry): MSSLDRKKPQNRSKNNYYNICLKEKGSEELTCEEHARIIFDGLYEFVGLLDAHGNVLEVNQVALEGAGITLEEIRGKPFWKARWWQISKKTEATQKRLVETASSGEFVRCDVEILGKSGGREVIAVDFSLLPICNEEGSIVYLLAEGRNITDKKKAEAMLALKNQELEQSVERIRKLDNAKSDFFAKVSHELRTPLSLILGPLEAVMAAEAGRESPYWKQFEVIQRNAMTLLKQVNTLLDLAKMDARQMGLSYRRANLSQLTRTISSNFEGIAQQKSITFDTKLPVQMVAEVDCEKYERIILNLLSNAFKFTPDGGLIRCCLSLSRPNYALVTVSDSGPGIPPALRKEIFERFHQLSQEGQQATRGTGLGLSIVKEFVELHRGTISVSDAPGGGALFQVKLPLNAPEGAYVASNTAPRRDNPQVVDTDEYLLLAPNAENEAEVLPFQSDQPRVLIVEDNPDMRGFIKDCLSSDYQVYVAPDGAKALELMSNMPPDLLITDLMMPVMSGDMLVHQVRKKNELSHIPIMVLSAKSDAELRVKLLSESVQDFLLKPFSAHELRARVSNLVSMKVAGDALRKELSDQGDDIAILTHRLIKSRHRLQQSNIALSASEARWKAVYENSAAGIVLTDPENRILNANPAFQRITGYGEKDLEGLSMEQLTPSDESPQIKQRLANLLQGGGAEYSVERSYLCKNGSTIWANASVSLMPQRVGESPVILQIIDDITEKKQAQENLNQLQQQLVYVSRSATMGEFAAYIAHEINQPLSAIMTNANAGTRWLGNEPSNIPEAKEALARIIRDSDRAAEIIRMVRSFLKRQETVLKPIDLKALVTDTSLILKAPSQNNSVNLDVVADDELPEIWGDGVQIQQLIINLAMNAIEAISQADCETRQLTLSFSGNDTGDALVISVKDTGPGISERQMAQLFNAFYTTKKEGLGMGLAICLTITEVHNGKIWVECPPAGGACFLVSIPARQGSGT

EC50: 170 ± 25 µM
SMILES: CC1=CC(=O)c2ccccc2C1=O [menadione, 2-methyl-l,4-naphthoquinone]
